Source: BindingDB's records for doi:10.1016/s0960-894x(99)00093-1 (Sankyo, 1999)

molecular target: T1, Substance-K receptor (Cavia porcellus, UniProt Q64077); assay: ChEBML_142706
T1 sequence (Q64077 whole entry): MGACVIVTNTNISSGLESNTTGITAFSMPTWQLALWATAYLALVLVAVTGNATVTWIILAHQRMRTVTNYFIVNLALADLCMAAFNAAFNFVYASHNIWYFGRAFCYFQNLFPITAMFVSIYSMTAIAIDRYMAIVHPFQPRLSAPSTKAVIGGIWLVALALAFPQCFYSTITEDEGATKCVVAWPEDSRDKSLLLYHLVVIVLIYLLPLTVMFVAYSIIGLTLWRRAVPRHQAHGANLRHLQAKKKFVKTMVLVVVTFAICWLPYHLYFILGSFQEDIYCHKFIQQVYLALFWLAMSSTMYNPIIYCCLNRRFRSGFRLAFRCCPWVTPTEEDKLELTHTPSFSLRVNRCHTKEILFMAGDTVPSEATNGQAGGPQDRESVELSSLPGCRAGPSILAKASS
Description: (§1) Inhibitory activity against Neurokinin 2 (NK2) receptor from guinea pig ileum

SMILES	IC50
COc1cc(C(=O)N2CO[C@](CCN3CCC4(CC3)c3ccccc3C[S+]4[O-])(c3ccc(Cl)c(Cl)c3)C2)cc(OC)c1OC (some centres undefined)	7.5 nM
COc1cc(C(=O)N2CO[C@](CCN3CCC4(CC3)C(=O)N(C)c3ccccc34)(c3ccc(Cl)c(Cl)c3)C2)cc(OC)c1OC	34 nM
COc1cc(C(=O)N2CO[C@](CCN3CCC(C(N)=O)(c4ccccc4)CC3)(c3ccc(Cl)c(Cl)c3)C2)cc(OC)c1OC	91 nM

molecular target: T2, Substance-P receptor (Cavia porcellus, UniProt P30547); assay: ChEBML_144914
Description: (§2) Inhibitory activity against Neurokinin 1 (NK1) receptor from guinea pig lung

T2 sequence (P30547 whole entry): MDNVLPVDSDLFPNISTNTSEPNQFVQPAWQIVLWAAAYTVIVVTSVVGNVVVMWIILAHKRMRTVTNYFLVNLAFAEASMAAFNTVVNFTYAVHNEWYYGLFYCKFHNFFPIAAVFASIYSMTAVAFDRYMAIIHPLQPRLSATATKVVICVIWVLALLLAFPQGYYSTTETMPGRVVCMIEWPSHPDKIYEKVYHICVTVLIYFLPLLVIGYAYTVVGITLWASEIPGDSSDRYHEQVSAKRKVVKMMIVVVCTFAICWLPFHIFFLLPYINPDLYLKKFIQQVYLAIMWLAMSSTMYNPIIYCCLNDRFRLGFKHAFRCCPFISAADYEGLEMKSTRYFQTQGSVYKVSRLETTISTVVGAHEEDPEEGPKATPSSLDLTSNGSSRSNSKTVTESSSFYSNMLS

IC50	SMILES
16 nM	COc1cc(C(=O)N2CO[C@](CCN3CCC4(CC3)c3ccccc3C[S+]4[O-])(c3ccc(F)c(F)c3)C2)cc(OC)c1OC (some centres undefined)
28 nM	COc1cc(C(=O)N2CO[C@](CCN3CCC4(CC3)NC(=O)Cc3ccccc34)(c3ccc(F)c(F)c3)C2)cc(OC)c1OC
27 nM	COc1cc(C(=O)N2CO[C@](CCN3CCC(C(=O)N(C)C)(c4ccccc4)CC3)(c3ccc(F)c(F)c3)C2)cc(OC)c1OC

molecular target: T1, Substance-K receptor; assay: as §1

SMILES	IC50
COc1cc(C(=O)N2CO[C@](CCN3CCC4(CC3)C[S+]([O-])c3ccccc34)(c3ccc(Cl)c(Cl)c3)C2)cc(OC)c1OC (some centres undefined)	7.3 nM
COc1cc(C(=O)N2CO[C@](CCN3CCC(C(=O)N(C)C)(c4ccccc4)CC3)(c3ccc(Cl)cc3)C2)cc(OC)c1OC	4.7 nM

The remaining lines, values ahead:

IC50	SMILES
74 nM	COc1cc(C(=O)N2CO[C@](CCN3CCN(c4ccc(C(C)=O)cc4)CC3)(c3ccc(Cl)c(Cl)c3)C2)cc(OC)c1OC
52 nM	COc1cc(C(=O)N2CO[C@](CCN3CCC(C(=O)N4CCOCC4)(c4ccccc4)CC3)(c3ccc(Cl)c(Cl)c3)C2)cc(OC)c1OC

molecular target: T2, Substance-P receptor; assay: as §2

SMILES	IC50
COc1cc(C(=O)N2CO[C@](CCN3CCC(C(N)=O)(c4ccccc4)CC3)(c3ccc(Cl)cc3)C2)cc(OC)c1OC	27 nM
COc1cc(C(=O)N2CO[C@](CCN3CCN(c4ccc(C(C)=O)cc4)CC3)(c3ccc(Cl)c(Cl)c3)C2)cc(OC)c1OC	18 nM
COc1cc(C(=O)N2CO[C@](CCN3CCC(C(N)=O)(c4ccccc4)CC3)(c3ccc(F)c(F)c3)C2)cc(OC)c1OC	10 nM
COc1cc(C(=O)N2CO[C@](CCN3CCC(C(N)=O)(c4ccccc4)CC3)(c3ccc(F)cc3)C2)cc(OC)c1OC	27 nM
